Test results taken from patent publication US20240376176A1 (priority 2021, published 2024).
Structures can show the parent of a compound that is named as a salt.

Experiments:
[1] = tested on: sciatic nerve; conditions: rat, in vivo
[2] = tested on: sciatic nerves and adjacent tissues; conditions: rat, in vivo
[3] = biological target: natural sodium channel proteins; conditions: cited from earlier work

CCCCN1CCCCC1C(=O)Nc1c(C)cccc1C (stereo not drawn) [Free Bup, bupivacaine hydrochloride]
Duration of nerve block [1]: 2.4 ± 0.3 h

NC1=N[C@H](O)[C@H]2[C@H]3O[C@]4(O)O[C@@H]([C@@H](O)[C@@]2(N1)[C@@H]4O)[C@]3(O)CO [Free TTX, tetrodotoxin]
Inflammation Score (range) Day 4 [2]: 0.5 | Inflammation Score (range) Day 14 [2]: 0 (0-1.0) | Myotoxicity Score (range) Day 4 [2]: 0 (0-1.0) | Myotoxicity Score (range) Day 14 [2]: 0 (0-1.0) | Kd [3]: ~1.3 nM
